Assay results reported in PubChem BioAssay (NCI).
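96-well plates; 48 h exposure; 5 concentrations. Endpoints by linear interpolation between flanking doses. Not reached: highest tested concentration assigned. The concentration for full growth arrest is given as TGI.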

Legend:
Test in all cases: DTP human tumour cell line panel, 48 h
SK-MEL-2 melanoma = test system: SK-MEL-2 melanoma
HL-60(TB) leukemia = test system: HL-60(TB) leukemia
MDA-MB-231 breast = test system: MDA-MB-231 breast
K-562 leukemia = test system: K-562 leukemia
HT29 colon = test system: HT29 colon
SK-OV-3 ovarian = test system: SK-OV-3 ovarian
MCF7 breast = test system: MCF7 breast
A498 renal = test system: A498 renal
EKVX NSCLC = test system: EKVX NSCLC
NCI-H460 lung = test system: NCI-H460 lung
OVCAR-3 ovarian = test system: OVCAR-3 ovarian
MOLT-4 leukemia = test system: MOLT-4 leukemia
ACHN renal = test system: ACHN renal
MALME-3M melanoma = test system: MALME-3M melanoma
U251 CNS = test system: U251 CNS
NCI-H23 lung = test system: NCI-H23 lung
HCT-15 colon = test system: HCT-15 colon
MDA-MB-435 = test system: MDA-MB-435
SW-620 colon = test system: SW-620 colon

CC(=O)Oc1c2ccsc2c(OC(C)=O)c2ccsc12
TGI (SK-MEL-2 melanoma): 1.98 µM
TGI (HL-60(TB) leukemia): > 26.5 µM
TGI (MDA-MB-231 breast): 6.17 µM
TGI (K-562 leukemia): > 100 µM
TGI (HT29 colon): 4.45 µM
TGI (SK-OV-3 ovarian): 9.93 µM
TGI (MCF7 breast): 2.31 µM
TGI (A498 renal): 3.29 µM
TGI (EKVX NSCLC): 3.63 µM
TGI (NCI-H460 lung): 3.57 µM
TGI (OVCAR-3 ovarian): 6.54 µM
TGI (MOLT-4 leukemia): 4.47 µM
TGI (ACHN renal): 2.28 µM
TGI (MALME-3M melanoma): 0.889 µM
TGI (U251 CNS): 2.45 µM
TGI (NCI-H23 lung): 1.05 µM
TGI (HCT-15 colon): 1.74 µM
TGI (MDA-MB-435): 0.377 µM

O=C1CCC2c3ccccc3NCN12 (centres undefined)
TGI (SK-MEL-2 melanoma): > 100 µM
TGI (HL-60(TB) leukemia): > 100 µM
TGI (MDA-MB-231 breast): > 100 µM
TGI (K-562 leukemia): > 100 µM
TGI (HT29 colon): > 100 µM
TGI (SK-OV-3 ovarian): > 100 µM
TGI (MCF7 breast): > 100 µM
TGI (A498 renal): > 100 µM
TGI (SW-620 colon): > 100 µM
TGI (EKVX NSCLC): > 100 µM
TGI (NCI-H460 lung): > 100 µM
TGI (OVCAR-3 ovarian): > 100 µM
TGI (MOLT-4 leukemia): > 100 µM
TGI (ACHN renal): > 100 µM
TGI (MALME-3M melanoma): > 100 µM
TGI (U251 CNS): > 100 µM
TGI (NCI-H23 lung): > 100 µM
TGI (HCT-15 colon): > 100 µM
TGI (MDA-MB-435): > 100 µM

COc1cc2cc3c4c(cc(OC)c(OC)c4c2cc1OC)CCN3C
TGI (SK-MEL-2 melanoma): 30 µM
TGI (HL-60(TB) leukemia): 18.7 µM
TGI (MDA-MB-231 breast): > 44.1 µM
TGI (K-562 leukemia): > 50 µM
TGI (HT29 colon): > 37.5 µM
TGI (SK-OV-3 ovarian): > 50 µM
TGI (MCF7 breast): > 36.4 µM
TGI (A498 renal): > 38.1 µM
TGI (SW-620 colon): > 50 µM
TGI (EKVX NSCLC): > 50 µM
TGI (NCI-H460 lung): > 27.3 µM
TGI (OVCAR-3 ovarian): 31.9 µM
TGI (MOLT-4 leukemia): > 31.4 µM
TGI (ACHN renal): 31.7 µM
TGI (MALME-3M melanoma): 24.9 µM
TGI (U251 CNS): > 50 µM
TGI (NCI-H23 lung): > 50 µM
TGI (HCT-15 colon): > 47.8 µM
TGI (MDA-MB-435): > 23.4 µM

CN(C)c1ccc(/C=N/c2nc3cc4sc(/N=C/c5ccc(N(C)C)cc5)nc4cc3s2)cc1
TGI (SK-MEL-2 melanoma): > 100 µM
TGI (HL-60(TB) leukemia): > 100 µM
TGI (MDA-MB-231 breast): > 100 µM
TGI (K-562 leukemia): > 100 µM
TGI (HT29 colon): > 100 µM
TGI (SK-OV-3 ovarian): > 100 µM
TGI (MCF7 breast): > 100 µM
TGI (A498 renal): > 100 µM
TGI (SW-620 colon): > 100 µM
TGI (EKVX NSCLC): > 100 µM
TGI (NCI-H460 lung): > 100 µM
TGI (OVCAR-3 ovarian): > 100 µM
TGI (MOLT-4 leukemia): > 100 µM
TGI (ACHN renal): > 100 µM
TGI (MALME-3M melanoma): > 100 µM
TGI (U251 CNS): > 100 µM
TGI (NCI-H23 lung): > 100 µM
TGI (HCT-15 colon): > 100 µM
TGI (MDA-MB-435): > 100 µM

O=C(CC(C(=O)c1ccsc1)c1ccsc1)c1ccsc1 (centres undefined)
TGI (SK-MEL-2 melanoma): > 100 µM
TGI (HL-60(TB) leukemia): > 100 µM
TGI (MDA-MB-231 breast): > 100 µM
TGI (K-562 leukemia): > 100 µM
TGI (HT29 colon): > 100 µM
TGI (SK-OV-3 ovarian): > 100 µM
TGI (MCF7 breast): > 100 µM
TGI (A498 renal): > 100 µM
TGI (SW-620 colon): > 100 µM
TGI (EKVX NSCLC): > 100 µM
TGI (NCI-H460 lung): > 100 µM
TGI (MOLT-4 leukemia): > 100 µM
TGI (ACHN renal): > 100 µM
TGI (MALME-3M melanoma): > 100 µM
TGI (U251 CNS): > 100 µM
TGI (NCI-H23 lung): > 100 µM
TGI (HCT-15 colon): > 100 µM
TGI (MDA-MB-435): > 100 µM

Cc1nc2cc3ccccc3cc2[nH]c1=O
TGI (SK-MEL-2 melanoma): > 100 µM
TGI (HL-60(TB) leukemia): > 100 µM
TGI (MDA-MB-231 breast): > 100 µM
TGI (K-562 leukemia): > 100 µM
TGI (HT29 colon): > 100 µM
TGI (SK-OV-3 ovarian): > 100 µM
TGI (MCF7 breast): > 100 µM
TGI (A498 renal): > 100 µM
TGI (SW-620 colon): > 100 µM
TGI (EKVX NSCLC): > 100 µM
TGI (NCI-H460 lung): > 100 µM
TGI (OVCAR-3 ovarian): > 100 µM
TGI (MOLT-4 leukemia): > 100 µM
TGI (MALME-3M melanoma): > 100 µM
TGI (U251 CNS): > 100 µM
TGI (NCI-H23 lung): > 100 µM
TGI (HCT-15 colon): > 100 µM
TGI (MDA-MB-435): > 100 µM

CN(C)CCCNC(=O)c1cc(NS(=O)(=O)c2ccc3c(c2)C(=O)c2ccccc2C3=O)cn1C
TGI (SK-MEL-2 melanoma): > 100 µM
TGI (HL-60(TB) leukemia): 62.3 µM
TGI (MDA-MB-231 breast): 85.5 µM
TGI (K-562 leukemia): > 100 µM
TGI (HT29 colon): 81.4 µM
TGI (SK-OV-3 ovarian): > 100 µM
TGI (MCF7 breast): 46.4 µM
TGI (A498 renal): 42.6 µM
TGI (SW-620 colon): > 100 µM
TGI (EKVX NSCLC): > 100 µM
TGI (NCI-H460 lung): 54.9 µM
TGI (OVCAR-3 ovarian): > 100 µM
TGI (MOLT-4 leukemia): > 100 µM
TGI (ACHN renal): 49.5 µM
TGI (MALME-3M melanoma): 18.7 µM
TGI (U251 CNS): > 100 µM
TGI (NCI-H23 lung): 64.7 µM
TGI (HCT-15 colon): > 100 µM
TGI (MDA-MB-435): 59 µM

O=C1OCC(c2ccc(Cl)cc2)=C1Cl
TGI (SK-MEL-2 melanoma): 64.1 µM
TGI (HL-60(TB) leukemia): 48.5 µM
TGI (MDA-MB-231 breast): 98.6 µM
TGI (K-562 leukemia): 92.6 µM
TGI (HT29 colon): > 100 µM
TGI (SK-OV-3 ovarian): > 100 µM
TGI (MCF7 breast): 44.6 µM
TGI (A498 renal): > 100 µM
TGI (SW-620 colon): 61.2 µM
TGI (EKVX NSCLC): > 100 µM
TGI (NCI-H460 lung): 46.2 µM
TGI (OVCAR-3 ovarian): 44.4 µM
TGI (MOLT-4 leukemia): > 100 µM
TGI (ACHN renal): > 100 µM
TGI (MALME-3M melanoma): 32.7 µM
TGI (U251 CNS): > 100 µM
TGI (NCI-H23 lung): 54.6 µM
TGI (HCT-15 colon): > 100 µM
TGI (MDA-MB-435): > 100 µM

COC(=O)c1c(C)c2c(c(C)c1C(=O)OC)-c1c(C)ccc3ccc(C)c-2c13
TGI (SK-MEL-2 melanoma): > 100 µM
TGI (HL-60(TB) leukemia): > 50.7 µM
TGI (MDA-MB-231 breast): > 60.6 µM
TGI (K-562 leukemia): > 100 µM
TGI (HT29 colon): 29.6 µM
TGI (SK-OV-3 ovarian): > 100 µM
TGI (MCF7 breast): > 100 µM
TGI (A498 renal): > 100 µM
TGI (SW-620 colon): > 94.5 µM
TGI (EKVX NSCLC): > 100 µM
TGI (NCI-H460 lung): > 69.4 µM
TGI (OVCAR-3 ovarian): > 100 µM
TGI (MOLT-4 leukemia): > 100 µM
TGI (ACHN renal): > 100 µM
TGI (MALME-3M melanoma): > 100 µM
TGI (U251 CNS): > 100 µM
TGI (HCT-15 colon): > 55.6 µM
TGI (MDA-MB-435): > 100 µM

Cc1ccc(S(=O)(=O)N/N=C2\CCCCCCCCCCC2CN(C)C)cc1 (centres undefined)
TGI (SK-MEL-2 melanoma): 22.8 µM
TGI (HL-60(TB) leukemia): 97.5 µM
TGI (MDA-MB-231 breast): 34 µM
TGI (K-562 leukemia): 56.5 µM
TGI (HT29 colon): 29.5 µM
TGI (SK-OV-3 ovarian): 36 µM
TGI (MCF7 breast): 31 µM
TGI (A498 renal): 34.9 µM
TGI (SW-620 colon): 31.8 µM
TGI (EKVX NSCLC): 70 µM
TGI (NCI-H460 lung): 25.3 µM
TGI (OVCAR-3 ovarian): 32.9 µM
TGI (MOLT-4 leukemia): > 100 µM
TGI (ACHN renal): 40.2 µM
TGI (MALME-3M melanoma): 30.9 µM
TGI (U251 CNS): 29.3 µM
TGI (NCI-H23 lung): 55.8 µM
TGI (HCT-15 colon): 29 µM
TGI (MDA-MB-435): 28 µM

COC(=O)c1cc(O)c(O)c(O)c1-c1c(O)c(O)c(O)c(SC[C@H](NC(=O)OCc2ccccc2)C(=O)OCc2ccccc2)c1C(=O)OC
TGI (SK-MEL-2 melanoma): 52.9 µM
TGI (HL-60(TB) leukemia): 39.8 µM
TGI (MDA-MB-231 breast): 39 µM
TGI (K-562 leukemia): 70.2 µM
TGI (HT29 colon): 86.5 µM
TGI (SK-OV-3 ovarian): > 100 µM
TGI (MCF7 breast): 43.1 µM
TGI (A498 renal): > 100 µM
TGI (SW-620 colon): 62.8 µM
TGI (EKVX NSCLC): 50.8 µM
TGI (NCI-H460 lung): > 100 µM
TGI (OVCAR-3 ovarian): > 100 µM
TGI (MOLT-4 leukemia): 43.4 µM
TGI (ACHN renal): 61.1 µM
TGI (MALME-3M melanoma): > 100 µM
TGI (U251 CNS): 33.5 µM
TGI (NCI-H23 lung): 50.3 µM
TGI (HCT-15 colon): > 100 µM
TGI (MDA-MB-435): 44 µM

CCOC(=O)CCC(NC(=O)c1ccc(Oc2nc3c(N)cc(C(F)(F)F)cc3nc2-c2ccccc2)cc1)C(=O)OCC (centres undefined)
TGI (SK-MEL-2 melanoma): > 30.7 µM
TGI (HL-60(TB) leukemia): > 100 µM
TGI (MDA-MB-231 breast): > 96.1 µM
TGI (K-562 leukemia): > 100 µM
TGI (HT29 colon): > 100 µM
TGI (SK-OV-3 ovarian): > 58.6 µM
TGI (MCF7 breast): > 100 µM
TGI (A498 renal): > 94.3 µM
TGI (SW-620 colon): > 100 µM
TGI (EKVX NSCLC): > 100 µM
TGI (NCI-H460 lung): > 100 µM
TGI (OVCAR-3 ovarian): > 30.9 µM
TGI (MOLT-4 leukemia): > 100 µM
TGI (ACHN renal): > 69.6 µM
TGI (MALME-3M melanoma): 91.9 µM
TGI (U251 CNS): > 100 µM
TGI (NCI-H23 lung): > 59.3 µM
TGI (HCT-15 colon): > 100 µM
TGI (MDA-MB-435): > 100 µM
